Results published in US20250346597A1, “CONDENSED HETEROCYCLIC COMPOUNDS AS INHIBITOR OF DIACYLGLYCEROL KINASES” (BEONE MEDICINES I GMBH, priority 2023, published 2025).

What was measured:
[1] = biological target: DGKζ (Homo sapiens (Human), UniProt Q13574); test: Biochemical DGK IC50 assay (ADP-Glo, lipid micelle substrate), DGKζ; details: full length DGKζ 0.5 nM, ATP 140 μM, DAG 80 μM
In short: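 Full-length human His-TEV-tagged DGKζ, expressed in Sf9 cells and purified, was run at room temperature on DAG/PS lipid micelles in 50 mM HEPES, 10 mM MgCl2, 0.01 mM CaCl2 buffer. After 1 h reaction, ADP formed was detected by ADP-Glo luminescence. IC50s came from inhibition across increasing compound concentrations.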

[2] = biological target: DGKα (Homo sapiens (Human), UniProt P23743); test: Biochemical DGK IC50 assay (ADP-Glo, lipid micelle substrate), DGKα; details: full length DGKα […], ATP 140 μM, DAG 80 μM; further: full length DGKα 7.5 nM
DGKα, sequence (P23743 whole entry): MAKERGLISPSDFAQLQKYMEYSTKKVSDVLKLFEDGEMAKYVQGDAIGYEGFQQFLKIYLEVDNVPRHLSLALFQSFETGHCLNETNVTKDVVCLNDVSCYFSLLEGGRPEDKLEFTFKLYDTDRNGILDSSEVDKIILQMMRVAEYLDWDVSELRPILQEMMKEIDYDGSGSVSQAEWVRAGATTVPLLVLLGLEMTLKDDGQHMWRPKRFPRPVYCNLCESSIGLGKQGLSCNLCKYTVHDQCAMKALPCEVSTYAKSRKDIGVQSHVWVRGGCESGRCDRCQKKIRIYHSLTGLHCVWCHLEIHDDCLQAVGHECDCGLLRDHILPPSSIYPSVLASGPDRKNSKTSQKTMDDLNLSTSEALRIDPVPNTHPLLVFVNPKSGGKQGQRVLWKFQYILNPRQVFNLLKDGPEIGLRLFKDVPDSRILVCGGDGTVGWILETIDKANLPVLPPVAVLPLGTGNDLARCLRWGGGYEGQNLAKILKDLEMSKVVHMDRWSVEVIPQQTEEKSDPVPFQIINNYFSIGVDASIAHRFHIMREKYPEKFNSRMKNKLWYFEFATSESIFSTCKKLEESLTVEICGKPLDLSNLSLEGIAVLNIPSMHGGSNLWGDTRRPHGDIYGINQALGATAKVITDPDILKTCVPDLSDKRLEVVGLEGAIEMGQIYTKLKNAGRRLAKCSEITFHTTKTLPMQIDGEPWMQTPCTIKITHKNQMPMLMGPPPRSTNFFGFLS
In short: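 Full-length human DGKα assayed by ADP-Glo with DAG/PS lipid micelle substrate at room temperature in 50 mM HEPES, 10 mM MgCl2, 0.01% BSA, 0.1 mM Na3VO4, 0.005% Tween-20, 0.01 mM CaCl2.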

DGKζ, sequence (Q13574 other isoform, or with tags, fused parts or gaps): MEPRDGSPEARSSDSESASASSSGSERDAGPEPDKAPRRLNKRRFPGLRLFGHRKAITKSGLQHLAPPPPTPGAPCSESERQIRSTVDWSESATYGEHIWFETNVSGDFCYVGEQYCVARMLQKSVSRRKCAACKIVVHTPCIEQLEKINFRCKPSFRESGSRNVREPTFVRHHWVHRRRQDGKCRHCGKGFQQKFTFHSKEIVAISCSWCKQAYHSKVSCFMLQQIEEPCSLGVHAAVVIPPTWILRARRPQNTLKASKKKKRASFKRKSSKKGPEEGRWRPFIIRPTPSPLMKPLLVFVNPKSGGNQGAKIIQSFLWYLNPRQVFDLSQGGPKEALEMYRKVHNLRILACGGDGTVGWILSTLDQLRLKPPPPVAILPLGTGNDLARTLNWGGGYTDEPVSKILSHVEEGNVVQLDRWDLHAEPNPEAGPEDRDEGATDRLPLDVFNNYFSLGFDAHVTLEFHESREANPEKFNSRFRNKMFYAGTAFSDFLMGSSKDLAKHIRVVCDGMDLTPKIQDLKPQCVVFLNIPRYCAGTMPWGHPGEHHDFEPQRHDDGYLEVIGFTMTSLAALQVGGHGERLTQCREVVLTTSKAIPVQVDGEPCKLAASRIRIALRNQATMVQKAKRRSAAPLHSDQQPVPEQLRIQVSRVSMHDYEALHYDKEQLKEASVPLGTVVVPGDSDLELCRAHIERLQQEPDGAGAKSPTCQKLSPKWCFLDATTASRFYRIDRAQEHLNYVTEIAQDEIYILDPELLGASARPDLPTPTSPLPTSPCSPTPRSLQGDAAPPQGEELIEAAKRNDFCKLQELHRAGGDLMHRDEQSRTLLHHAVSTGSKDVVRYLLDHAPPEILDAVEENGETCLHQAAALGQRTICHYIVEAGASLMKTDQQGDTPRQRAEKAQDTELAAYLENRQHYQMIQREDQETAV

`CC[C@H]1CN(C(C)c2ccc(COC)cn2)[C@H](CC)CN1c1cc(=O)n(C)c2cn(CC#N)nc12` (stereo partly drawn) [Compound A61, 2-(7-((2S,5R)-2,5-diethyl-4-(1-(5-(methoxymethyl)pyridin-2-yl)ethyl)piperazin-1-yl)-4-methyl-5-oxo-4,5-dihydro-2H-pyrazolo[4,3-b]pyridin-2-yl)acetonitrile] gave an IC50 [1] of 298 nM and an IC50 [2] of 143 nM.

`CC[C@H]1CN(C(C)c2ccc(C3CC3)c(F)n2)[C@H](CC)CN1c1cc(=O)n(C)c2cn(CC#N)nc12` (stereo partly drawn) [Compound A62, 2-(7-((2S,5R)-4-(1-(5-cyclopropyl-6-fluoropyridin-2-yl)ethyl)-2,5-diethylpiperazin-1-yl)-4-methyl-5-oxo-4,5-dihydro-2H-pyrazolo[4,3-b]pyridin-2-yl)acetonitrile] showed an IC50 [1] of 154 nM and an IC50 [2] of 21 nM.

For `CC[C@H]1CN(C(C)c2cc(F)c(C3CC3)cn2)[C@H](CC)CN1c1cc(=O)n(C)c2cn(CC#N)nc12` (stereo partly drawn) [Compound A63, 2-(7-((2S,5R)-4-(1-(5-cyclopropyl-4-fluoropyridin-2-yl)ethyl)-2,5-diethylpiperazin-1-yl)-4-methyl-5-oxo-4,5-dihydro-2H-pyrazolo[4,3-b]pyridin-2-yl)acetonitrile], the IC50 [1] was 21 nM and the IC50 [2] was 167 nM.

For `CC[C@H]1CN(C(C)c2cc3c(cc2F)OC(C)(C)CO3)[C@H](CC)CN1c1cc(=O)n(C)c2cn(CC#N)nc12` (stereo partly drawn) [Compound A64, 2-(7-((2S,5R)-2,5-diethyl-4-(1-(7-fluoro-2,2-dimethyl-2,3-dihydrobenzo[b][1,4]dioxin-6-yl)ethyl)piperazin-1-yl)-4-methyl-5-oxo-4,5-dihydro-2H-pyrazolo[4,3-b]pyridin-2-yl)acetonitrile], the IC50 [1] was 7.8 nM and the IC50 [2] was 1040 nM.

In the case of `CC[C@H]1CN(C(C)c2ccc3c(c2)CCC3)[C@H](CC)CN1c1cc(=O)n(C)c2cn(CC#N)nc12` (stereo partly drawn) [Compound A65, 2-(7-((2S,5R)-4-(1-(2,3-dihydro-1H-inden-5-yl)ethyl)-2,5-diethylpiperazin-1-yl)-4-methyl-5-oxo-4,5-dihydro-2H-pyrazolo[4,3-b]pyridin-2-yl)acetonitrile], the IC50 [1] is reported as 66 nM and the IC50 [2] is reported as 295 nM.

With `CC[C@H]1CN(C(C)c2ccc3c(c2)CCC3(C)C)[C@H](CC)CN1c1cc(=O)n(C)c2cn(CC#N)nc12` (stereo partly drawn) [Compound A66, 2-(7-((2S,5R)-4-(1-(1,1-dimethyl-2,3-dihydro-1H-inden-5-yl)ethyl)-2,5-diethylpiperazin-1-yl)-4-methyl-5-oxo-4,5-dihydro-2H-pyrazolo[4,3-b]pyridin-2-yl)acetonitrile] the IC50 [1] was 96 nM and the IC50 [2] was 2250 nM.

`CC[C@H]1CN(C(C)c2ccc3c(c2)CCO3)[C@H](CC)CN1c1cc(=O)n(C)c2cn(CC#N)nc12` (stereo partly drawn) [Compound A67, 2-(7-((2S,5R)-4-(1-(2,3-dihydrobenzofuran-5-yl)ethyl)-2,5-diethylpiperazin-1-yl)-4-methyl-5-oxo-4,5-dihydro-2H-pyrazolo[4,3-b]pyridin-2-yl)acetonitrile] showed an IC50 [1] of 71 nM and an IC50 [2] of 245 nM.

`CC(c1ccc2c(c1F)OC(C)(C)O2)N1C[C@H](C)N(c2cc(=O)n(C)c3cn(CC#N)nc23)C[C@H]1C` (stereo partly drawn) [Compound A69, 2-(7-((2S,5R)-4-(1-(4-fluoro-2,2-dimethylbenzo[d][1,3]dioxol-5-yl)ethyl)-2,5-dimethylpiperazin-1-yl)-4-methyl-5-oxo-4,5-dihydro-2H-pyrazolo[4,3-b]pyridin-2-yl)acetonitrile] gave an IC50 [1] of 20 nM and an IC50 [2] of 4730 nM.

`CC(c1ccc2c(c1)OC(C)(C)O2)N1C[C@H](C)N(c2cc(=O)n(C)c3cn(CC#N)nc23)C[C@H]1C` (stereo partly drawn) [Compound A70, 2-(7-((2S,5R)-4-(1-(2,2-dimethylbenzo[d][1,3]dioxol-5-yl)ethyl)-2,5-dimethylpiperazin-1-yl)-4-methyl-5-oxo-4,5-dihydro-2H-pyrazolo[4,3-b]pyridin-2-yl)acetonitrile] showed an IC50 [1] of 31 nM and an IC50 [2] of 12400 nM.

For `CC[C@H]1CN(C(C)c2ccc3c(c2F)OC(C)(C)O3)[C@H](CC)CN1c1cc(=O)n(C)c2cn(CC#N)nc12` (stereo partly drawn) [Compound A71, 2-(7-((2S,5R)-2,5-diethyl-4-(1-(4-fluoro-2,2-dimethylbenzo[d][1,3]dioxol-5-yl)ethyl)piperazin-1-yl)-4-methyl-5-oxo-4,5-dihydro-2H-pyrazolo[4,3-b]pyridin-2-yl)acetonitrile], the IC50 [1] was 4 nM and the IC50 [2] was 1830 nM.

`CC[C@H]1CN(C(C)c2ccc3c(n2)CCC3)[C@H](CC)CN1c1cc(=O)n(C)c2cn(CC#N)nc12` (stereo partly drawn) [Compound A72, 2-(7-((2S,5R)-4-(1-(6,7-dihydro-5H-cyclopenta[b]pyridin-2-yl)ethyl)-2,5-diethylpiperazin-1-yl)-4-methyl-5-oxo-4,5-dihydro-2H-pyrazolo[4,3-b]pyridin-2-yl)acetonitrile] was tested, and the IC50 [1] was 33 nM and the IC50 [2] was 27 nM.

`CC[C@H]1CN(C(C)c2ccc3c(n2)CCO3)[C@H](CC)CN1c1cc(=O)n(C)c2cn(CC#N)nc12` (stereo partly drawn) [Compound A73, 2-(7-((2S,5R)-4-(1-(2,3-dihydrofuro[3,2-b]pyridin-5-yl)ethyl)-2,5-diethylpiperazin-1-yl)-4-methyl-5-oxo-4,5-dihydro-2H-pyrazolo[4,3-b]pyridin-2-yl)acetonitrile] was tested, and the IC50 [1] was 126 nM and the IC50 [2] was 91 nM.

With `CC[C@H]1CN(C(C)c2cnc3c(c2)CCO3)[C@H](CC)CN1c1cc(=O)n(C)c2cn(CC#N)nc12` (stereo partly drawn) [Compound A74, 2-(7-((2S,5R)-4-(1-(2,3-dihydrofuro[2,3-b]pyridin-5-yl)ethyl)-2,5-diethylpiperazin-1-yl)-4-methyl-5-oxo-4,5-dihydro-2H-pyrazolo[4,3-b]pyridin-2-yl)acetonitrile] the IC50 [1] was 475 nM and the IC50 [2] was 5820 nM.

With `CC[C@H]1CN(C(C)c2ccc3c(F)cnn3c2)[C@H](CC)CN1c1cc(=O)n(C)c2cn(CC#N)nc12` (stereo partly drawn) [Compound A76, 2-(7-((2S,5R)-2,5-diethyl-4-(1-(3-fluoropyrazolo[1,5-a]pyridin-6-yl)ethyl)piperazin-1-yl)-4-methyl-5-oxo-4,5-dihydro-2H-pyrazolo[4,3-b]pyridin-2-yl)acetonitrile] the IC50 [1] was 179 nM and the IC50 [2] was 1600 nM.

With `CC[C@H]1CN(C(C)c2cnc3c(c2)ncn3C)[C@H](CC)CN1c1cc(=O)n(C)c2cn(CC#N)nc12` (stereo partly drawn) [Compound A78, 2-(7-((2S,5R)-2,5-diethyl-4-(1-(3-methyl-3H-imidazo[4,5-b]pyridin-6-yl)ethyl)piperazin-1-yl)-4-methyl-5-oxo-4,5-dihydro-2H-pyrazolo[4,3-b]pyridin-2-yl)acetonitrile] the IC50 [1] was 1870 nM and the IC50 [2] was 25000 nM.

With `CC[C@H]1CN(C(C)c2ccc3nscc3c2)[C@H](CC)CN1c1cc(=O)n(C)c2cn(CC#N)nc12` (stereo partly drawn) [Compound A88, 2-(7-((2S,5R)-4-(1-(benzo[c]isothiazol-5-yl)ethyl)-2,5-diethylpiperazin-1-yl)-4-methyl-5-oxo-4,5-dihydro-2H-pyrazolo[4,3-b]pyridin-2-yl)acetonitrile] the IC50 [1] was 10 nM and the IC50 [2] was 51 nM.

`CC[C@H]1CN(C(C)c2ccc3ccsc3c2)[C@H](CC)CN1c1cc(=O)n(C)c2cn(CC#N)nc12` (stereo partly drawn) [Compound A89, 2-(7-((2S,5R)-4-(1-(benzo[b]thiophen-6-yl)ethyl)-2,5-diethylpiperazin-1-yl)-4-methyl-5-oxo-4,5-dihydro-2H-pyrazolo[4,3-b]pyridin-2-yl)acetonitrile] was tested, and the IC50 [1] was 34 nM and the IC50 [2] was 28 nM.

In the case of `CC(c1ccc2ncsc2c1)N1C[C@H](C)N(c2cc(=O)n(C)c3cn(CC#N)nc23)C[C@H]1C` (stereo partly drawn) [Compound A93, 2-(7-((2S,5R)-4-(1-(benzo[d]thiazol-6-yl)ethyl)-2,5-dimethylpiperazin-1-yl)-4-methyl-5-oxo-4,5-dihydro-2H-pyrazolo[4,3-b]pyridin-2-yl)acetonitrile], the IC50 [1] is reported as 99 nM and the IC50 [2] is reported as 493 nM.

Compound `CC[C@H]1CN(C(C)c2ccc3ncsc3c2)[C@H](CC)CN1c1c(Br)c(=O)n(C)c2cn(CC#N)nc12` (stereo partly drawn) [Compound A94] has an IC50 [1] of 974 nM and an IC50 [2] of 1850 nM.

`CC[C@H]1CN(C(C)c2ccc3ncsc3c2)[C@H](CC)CN1c1c(C#N)c(=O)n(C)c2cn(CC#N)nc12` (stereo partly drawn) [Compound A95, 7-((2S,5R)-4-(1-(benzo[d]thiazol-6-yl)ethyl)-2,5-diethylpiperazin-1-yl)-2-(cyanomethyl)-4-methyl-5-oxo-4,5-dihydro-2H-pyrazolo[4,3-b]pyridine-6-carbonitrile] showed an IC50 [1] of 64 nM and an IC50 [2] of 52 nM.

For `CC[C@H]1CN(C(C)c2cc3scnc3cn2)[C@H](CC)CN1c1cc(=O)n(C)c2cn(CC#N)nc12` (stereo partly drawn) [Compound A97, 2-(7-((2S,5R)-2,5-diethyl-4-(1-(thiazolo[4,5-c]pyridin-6-yl)ethyl)piperazin-1-yl)-4-methyl-5-oxo-4,5-dihydro-2H-pyrazolo[4,3-b]pyridin-2-yl)acetonitrile], the IC50 [1] was 256 nM and the IC50 [2] was 502 nM.

For `CC[C@H]1CN(C(C)c2ccc3ocnc3c2)[C@H](CC)CN1c1cc(=O)n(C)c2cn(CC#N)nc12` (stereo partly drawn) [Compound A105], the IC50 [1] was 157 nM and the IC50 [2] was 58 nM.

Compound `CC[C@H]1CN(C(C)c2ccc3sc(C)nc3c2)[C@H](CC)CN1c1cc(=O)n(C)c2cn(CC#N)nc12` (stereo partly drawn) [Compound A108, 2-(7-((2S,5R)-2,5-diethyl-4-(1-(2-methylbenzo[d]thiazol-5-yl)ethyl)piperazin-1-yl)-4-methyl-5-oxo-4,5-dihydro-2H-pyrazolo[4,3-b]pyridin-2-yl)acetonitrile] has an IC50 [1] of 11 nM and an IC50 [2] of 2650 nM.

`CCc1nc2cc(C(C)N3C[C@H](CC)N(c4cc(=O)n(C)c5cn(CC#N)nc45)C[C@H]3CC)ccc2s1` (stereo partly drawn) [Compound A109, 2-(7-((2S,5R)-2,5-diethyl-4-(1-(2-ethylbenzo[d]thiazol-5-yl)ethyl)piperazin-1-yl)-4-methyl-5-oxo-4,5-dihydro-2H-pyrazolo[4,3-b]pyridin-2-y)acetonitrile] was tested, and the IC50 [1] was 18 nM and the IC50 [2] was 2430 nM.
